How the values were obtained:
hippocampus of mice = test: Neuroprotection in the hippocampus of mice after kainate (histopathology); assay type: in vivo, mice (FVB/NHan); conditions: KA 25 mg/kg i.p., NST0005 50 mg/kg i.p. daily, 2 days before and 7 days after KA
Experimental: All the animals included during the experimental process were 12-week old males of the FVB/NHan strain. The experiments were carried out strictly following the Guidance on the Operation of Animals (Scientific Procedures, Act. 1986). The animals had their respective quarantine period and were treated with maximum precaution to minimize possible contaminations for inoculations and handling.
Sixteen animals were used in this assay and the treatments were all carried out by intraperitoneal (i.p.) route with a volume of 100 μl, according to the following regimens: • i) PBS+PBS+PBS regimen: 4 animals were initially treated with PBS with a daily dose for 2 days, on the second day the animals were inoculated with a new dose of PBS and for the next 7 days with a daily dose of PBS. • ii) PBS+KA+PBS regimen: 6 animals were initially treated with PBS with a daily dose for 2 days, on the second day the animals were inoculated with a dose of kainate at 25 mg/kg and for the next 7 days with a daily dose of PBS. • iii) NST0005+KA+NST0005 regimen: 6 animals were initially treated with NST0005 with a daily dose of 50 mg/kg for 2 days, on the second day the animals were inoculated with a dose of kainate at 25 mg/kg and for the next 7 days with a daily dose of NST0005 at 50 mg/kg.
Once the treatment time of 7 days ended, the animals were sacrificed and the brains were dissected. The brain samples were processed and included in paraffin. Fluoro-Jade B® (FJB) fluorescent stain was used in 5 μm thick sections to analyze the neurodegeneration of the hippocampus.
Based on the neuroprotection results shown in the previous section, the inventors decided to investigate if the neuroprotective effect of NST0005 in the hippocampus of mice against the administration of kainate (KA) was accompanied by the protection of another sign of neuronal damage such as neuritic dystrophy. To that end, the same experimental scheme was used as in section 6.1. Once the treatment period of 7 days ended, the animals were sacrificed and the brains were dissected. The brain samples were processed and included in paraffin. Bright field immunohistochemistry of the microtubule-associated protein 2 (MAP2) was used in 5 μm thick sections to analyze the neuritic dystrophy of the hippocampus.
Based on the neuroprotection results shown in the previous sections, the inventors decided to investigate if the neuroprotective effect of NST0005 in the hippocampus of mice against the administration of kainate (KA) was accompanied by the inhibition of neuronal death by apoptosis. To that end, the same experimental scheme was used as in section 6.1. Once the treatment period of 7 days ended, the animals were sacrificed and the brains were dissected. The brain samples were processed and included in paraffin. […]

[1] = tested on: human neuroblastoma SK-N-MC cells; test: Protection against neuronal death induced by endoplasmic reticulum stress (tunicamycin), WST-1 test; assay type: cell-based; conditions: tunicamycin 20 μg/ml, 22 h, at 20 μg/ml, protection at 4, 10, 20 and 40 μg/ml
Experimental: To that end, an assay was performed on human neuroblastoma SK-N-MC cells in culture from the ATCC (HTB-10); in all cases strict rules of sterility were followed and the manipulation was performed in class II biological safety cabinets following European standard EN 12469. The cells were maintained in MEM culture medium supplemented with 1 mM sodium pyruvate, 2 mM L-glutamine, 0.1 mM non-essential amino acids, 0.05 mg/ml gentamicin and 10% fetal bovine serum.
The inhibition caused by the compound (1S,3R,7S,8S,8aR)-1,2,3,7,8,8a-hexahydro-3,7-dimethyl-8-[2-[(2R,4R)-tetrahydro-4-hydroxy-6-oxo-2H-pyran-2-yl]ethyl-1-naphthalenyl 2,2-dimethylpropanoate (NST0005) of cell death caused by treatment with tunicamycin (Tm), which generates endoplasmic reticulum stress by inhibition of N-glycosylation of proteins, which triggers cell death, was analyzed. […]
The cells were incubated (at 37° C. and 5% CO2) with these treatments for 22 h, after which time the WST-1 reagent (Roche) was added. The WST-1 Test, as has been previously mentioned, is based on the measurement of the metabolic activity; the metabolically active (live) cells reduce tetrazolium salt to formazan by means of the succinate-tetrazolium reductase system (of the mitochondrial respiratory chain) and the formazan which is formed can be detected colorimetrically since it has an absorbance of 440 nm. […]

C[C@H]1C=C2C=C[C@H](C)[C@H](CC[C@@H]3C[C@@H](O)CC(=O)O3)[C@H]2[C@@H](OC(=O)C(C)(C)C)C1 [NST0005]
neuritic dystrophy in the hippocampus (MAP2) (hippocampus of mice): significantly prevents the neuritic dystrophy
neurodegeneration in the hippocampus (Fluoro-Jade B) (hippocampus of mice): completely protected against the neurodegeneration
neuronal death by apoptosis in the hippocampus (Acridine Orange) (hippocampus of mice): prevents neuronal damage, neurodegeneration and also neuronal death by apoptosis
neuronal death by necrosis in the hippocampus (hematoxylin and eosin) (hippocampus of mice): substantially prevents neuronal death by necrosis
maximum reduction of the percentage of cell death relating to death caused by Tunicamycin [1]: 38%
